Molecules are shown by their SMILES. A value given as a limit tells only on which side of the number the result lay.

These results are taken from patent US20260035385A1, “BENZO NITROGEN-CONTAINING HETEROAROMATIC RING DERIVATIVE AND USE THEREOF IN MEDICINE” (Xizang Haisco Pharmaceutical Co., Ltd., priority 2021, published 2026).

In one series the target is FB (Homo sapiens, UniProt P00751). Briefly: biochemical.
Series [1] has as its system complement alternative pathway. Nature of the series: Biological Test Example 2: complement alternative pathway inhibition, IBL alternative pathway kit, serum from healthy volunteers. It counts as biochemical, human. The settings on record: LPS-coated plate, 37 °C 1 h, read-out: IC50 for inhibiting alternative pathway. The protocol: The inhibitory effect of the compounds on the complement alternative pathway was detected using the IBL alternative pathway kit (COMPL AP330 RUO). Serum from healthy volunteers was collected and 1 portion was diluted with a buffer of 20 mM EDTA in gelatin (0.15 mM CaCl2, 141 mM NaCl, 4.5 mM MgCl2, 4.2 mM HEPES, and 0.1% gelatin at pH 7.4) to 50% (v/v), and 1 portion was diluted to 50% (v/v) with a buffer of 20 mM EGTA in gelatin. The compounds were prepared in DMSO to a working solution 100 times the final concentration. Before use, 50% of the above serum was diluted 1/18 with the AP diluent in the kit. 1 part of the compound working solution (v/v) or DMSO (positive control PC) was added to 99 parts of the diluted serum containing EGTA for pretreatment for 30 min, and 1 part of DMSO (v/v) was added to 99 parts of the diluted serum containing EDTA, as negative control (NC). The serum pretreated with the above compounds (or DMSO) was added at […] to the LPS-coated 96-well plate, incubated at 37° C. for 1 h, and the plate was washed 3 times with washing solution in the kit; the conjugated chromogenic substrate was added according to the instruction in the kit, and the absorbance was read at 405 nm with a microplate reader. The inhibitory activity of the compounds on alternative pathway was calculated using the following formula.
OD^CPD was the OD value when the inhibitor was added, OD^NC was the OD value of the negative control, and OD^PC was the OD value of the positive control.
Graphpad was used to perform nonlinear regression on the final concentrations and inhibition rates of the compounds to obtain the IC50 of the compounds for inhibiting the alternative pathway.

In a further series the test system is C3a levels in mice. Nature of the series: Biological Test Example 4: LPS mouse model, plasma C3a level. It is filed as in vivo. Conditions: compound given 3.5 h after LPS, plasma at 7.5 h. The protocol:
Mice were intravenously given 0.5 mg/ml LPS solution at 100 μL/mouse to create a model, and the naive group was given physiological saline. Mice were given the compounds 3.5 h after injection of physiological saline/LPS solution, and the naive group and model group were given vehicle (0.5% MC+0.5% Tween 80). 7.5 h after the mice in each group were injected with physiological saline/LPS, blood was collected from the orbit and the plasma was separated. The plasma C3a level was detected using mouse C3a ELISA kit (NOVUS/NBP2-70037), and the inhibition rate of C3a was calculated. The formula is as follows: […]
Among them: Ct, C3a level after administration; Cnaive, C3a level of naive group; Cmodel, C3a level of model group.

Series [2] can be described thus: Stability in liver microsome (DLM). It is filed as in vitro ADME, dog. Conditions: 0.50 mg/mL microsomal protein, 1.00 μM, NADPH, 37 °C. Here is the method:
(§1) The total volume of the incubation system was 100 μL, the medium was 100 mM phosphate buffer (PBS, pH 7.4), including liver microsomal protein with a final concentration of 0.50 mg/mL, 1.00 μM test substance and 1.00 mM NADPH, 37° C. water bath was used for incubation, and 300 μL of ice-cold acetonitrile containing internal standard was added to terminate the reaction after 0, 5, 10, 20, 30, and 60 min of reaction, respectively. The negative control was incubated with heat-inactivated liver microsomes of the corresponding species, and the incubation time points were 0 and 60 min respectively. The LC/MS/MS method was used to detect the concentration of the test substance in the sample and the remaining rate of the compound was calculated.

Series [3] in a line: Pharmacokinetic experiment in monkeys. It counts as in vivo, cynomolgus monkeys. The settings on record: compared with the trifluoroacetate of LNP023, in words. The protocol:
Test objective: In this experiment, a single dose of test compounds was administered to cynomolgus monkeys intravenously and intragastrically, and the concentrations of the test compounds in plasma of the monkeys were measured to evaluate pharmacokinetic characteristics of the test compounds in the monkeys.
Experimental animals: Male cynomolgus monkeys, 3-5 kg, 3-6 years old, 6 monkeys/compound. Purchased from Suzhou Xishan Biotechnology Inc.
Experimental method: on the day of the test, 6 monkeys were randomly grouped according to their body weights. The animals were fasted with water available for 14 to 18 hours one day before the administration of a test compound, and were fed 4 hours after the administration.
Sampling: before and after the administration, 1.0 mL of blood was taken from the limb veins, and placed in an EDTAK2 centrifuge tube. Centrifugation was carried out at 5000 rpm at 4° C. for 10 min, and the plasma was collected.
(§2) Time points for plasma collection in IV&PO group: 0, 5 min, 15 min, 30 min, 1 h, 2 h, 4 h, 6 h, 8h, 10 h, 12h, and 24 h.
(§3) Before analysis and detection, all samples were stored at −60° C. The samples were analyzed quantitatively by LC-MS/MS.

For the next series, the system named is Caco-2 cells. Briefly: Caco2 permeability test. It is filed as in vitro ADME. Conditions: Caco2, compared with the trifluoroacetate of LNP023, in words. Here is the method:
(§4) The experiment used a monolayer of Caco-2 cells incubated in triplicate in a 96-well Transwell plate. […] Acetonitrile containing internal standard was then added to precipitate the protein. […] The integrity of the cell monolayer after 2 h of incubation was assessed by leakage of Lucifer Yellow.

The nature of the next series: Caco2 permeability test. It is filed as in vitro ADME. Conditions: human; Caco-2 monolayer, 2 μM, 2 h, pH 7.4. Here is the method: as §4
For orientation: Caco-2 cells form a polarised layer with tight junctions and transporters.

The nature of series [4]: Stability in liver microsome (MouLM). It is filed as in vitro ADME, mouse. The settings on record: 0.50 mg/mL microsomal protein, 1.00 μM, NADPH, 37 °C. The protocol: as §1
On the technique in general: Liver microsomes are vesicles of endoplasmic reticulum, rich in cytochrome P450 enzymes.

The nature of series [5]: Pharmacokinetic test of dogs. It is filed as in vivo. The settings on record: male, beagle, dog, plasma, po, i.g. (5 mg/kg). The protocol: Test objective: In this experiment, a single dose of test compounds was administered to beagle dogs intravenously and intragastrically, and the concentrations of the test compounds in plasma of the beagle dogs were measured to evaluate pharmacokinetic characteristics of the test compounds in the beagle dogs.
Experimental animals: Male beagle dogs, 8-11 kg, 1-3 years old, 6 dogs/compound. purchased from Beijing Marshall Biotechnology Co. Ltd.
Experimental method: on the day of the test, 6 beagle dogs were randomly grouped according to their body weights. The animals were fasted with water available for 14 to 18 hours one day before the administration of a test compound, and were fed 4 hours after the administration.
Sampling: Before and after the administration, 1.0 mL of blood was taken from the jugular veins or limb veins, and placed in an EDTAK2 centrifuge tube. Centrifugation was carried out at 5000 rpm at 4° C. for 10 min, and the plasma was collected.
as §2, §3

Series [6] is described as follows: Stability in liver microsome (HLM). It counts as in vitro ADME, human. Conditions: 0.50 mg/mL microsomal protein, 1.00 μM, NADPH, 37 °C. The protocol: as §1
Series [7] is described as follows: Pharmacokinetic test in mice. The settings on record: male, C57, mouse, plasma, po, i.g. (10 mg/kg). It counts as in vivo. Here is the method: Test objective: In this experiment, a single dose of test compounds was administered to C57 mice intravenously and intragastrically, the concentrations of the test compounds in plasma of mice were measured, and the pharmacokinetic characteristics of the test compounds in mice were evaluated.
Experimental animals: Male C57 mice, 20-25 g, 6-8 weeks old, 18 mice/compound. purchased from Chengdu Ddossy Experimental Animals Co., Ltd.
Experimental method: On the day of the experiment, 18 C57 mice were randomly grouped according to their body weight. The animals were fasted with water available for 12 to 14 hours one day before the administration of a test compound, and were fed 4 hours after the administration.
Sampling: Before and after the administration, 0.08 mL of blood sample was drawn from the orbit under isoflurane anesthesia, and placed in an EDTAK2 centrifuge tube. Centrifugation was carried out at 5000 rpm at 4° C. for 10 min, and the plasma was collected.
Time points for plasma collection in IV&PO group: 0, 5 min, 15 min, 30 min, 1 h, 2 h, 4 h, 6 h, 8h, and 24 h.
as §3

The nature of series [8]: Stability in liver microsome (RLM). It counts as in vitro ADME, rat. The settings on record: 0.50 mg/mL microsomal protein, 1.00 μM, NADPH, 37 °C. The protocol:
as §1

The nature of series [9]: Stability in liver microsome (CLM). It is filed as in vitro ADME, cynomolgus monkey. The settings on record: 0.50 mg/mL microsomal protein, 1.00 μM, NADPH, 37 °C. Here is the method:
as §1

Chain of FB (P00751 260-764 limits assumed): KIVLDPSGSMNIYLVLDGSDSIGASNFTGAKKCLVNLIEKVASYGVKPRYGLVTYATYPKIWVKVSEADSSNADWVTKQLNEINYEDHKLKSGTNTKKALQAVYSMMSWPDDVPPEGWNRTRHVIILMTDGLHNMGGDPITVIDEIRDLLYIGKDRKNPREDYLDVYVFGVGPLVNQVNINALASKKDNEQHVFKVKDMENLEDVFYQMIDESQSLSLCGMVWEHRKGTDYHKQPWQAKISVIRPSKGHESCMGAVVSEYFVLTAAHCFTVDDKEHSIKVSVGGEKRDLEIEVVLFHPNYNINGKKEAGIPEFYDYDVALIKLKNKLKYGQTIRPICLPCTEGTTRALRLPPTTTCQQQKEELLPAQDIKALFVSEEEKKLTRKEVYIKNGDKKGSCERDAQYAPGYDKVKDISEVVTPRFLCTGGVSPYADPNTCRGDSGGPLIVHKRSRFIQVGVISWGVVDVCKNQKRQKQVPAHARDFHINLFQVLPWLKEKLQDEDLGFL
Chain of FB (Q91132 23-649 partner limits assumed): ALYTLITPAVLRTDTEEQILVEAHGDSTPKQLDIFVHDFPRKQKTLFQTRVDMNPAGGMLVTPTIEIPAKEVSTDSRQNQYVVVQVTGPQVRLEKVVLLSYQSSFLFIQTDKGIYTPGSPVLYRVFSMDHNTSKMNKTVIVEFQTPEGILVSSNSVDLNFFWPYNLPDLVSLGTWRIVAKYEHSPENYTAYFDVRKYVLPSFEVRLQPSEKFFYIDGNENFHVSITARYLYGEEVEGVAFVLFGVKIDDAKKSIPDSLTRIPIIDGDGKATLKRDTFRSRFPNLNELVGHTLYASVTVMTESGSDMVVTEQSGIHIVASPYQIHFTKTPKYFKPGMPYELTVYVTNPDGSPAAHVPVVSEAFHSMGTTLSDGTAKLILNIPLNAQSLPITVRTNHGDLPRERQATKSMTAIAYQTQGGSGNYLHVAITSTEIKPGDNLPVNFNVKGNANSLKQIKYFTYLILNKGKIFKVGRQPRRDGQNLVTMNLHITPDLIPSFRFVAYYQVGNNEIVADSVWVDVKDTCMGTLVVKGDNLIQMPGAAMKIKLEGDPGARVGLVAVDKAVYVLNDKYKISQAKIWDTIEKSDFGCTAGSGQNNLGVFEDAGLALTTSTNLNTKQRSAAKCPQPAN
Chain of FB (Q91132 733-984 partner limits assumed): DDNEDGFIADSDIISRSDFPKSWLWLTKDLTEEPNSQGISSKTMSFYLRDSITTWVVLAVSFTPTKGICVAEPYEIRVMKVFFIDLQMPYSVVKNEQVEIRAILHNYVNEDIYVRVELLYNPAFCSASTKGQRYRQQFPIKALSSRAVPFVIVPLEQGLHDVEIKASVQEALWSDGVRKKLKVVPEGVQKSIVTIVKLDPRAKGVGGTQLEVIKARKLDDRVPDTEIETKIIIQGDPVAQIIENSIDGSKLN
Chain of FB (Q91132 1264-1642 partner limits assumed): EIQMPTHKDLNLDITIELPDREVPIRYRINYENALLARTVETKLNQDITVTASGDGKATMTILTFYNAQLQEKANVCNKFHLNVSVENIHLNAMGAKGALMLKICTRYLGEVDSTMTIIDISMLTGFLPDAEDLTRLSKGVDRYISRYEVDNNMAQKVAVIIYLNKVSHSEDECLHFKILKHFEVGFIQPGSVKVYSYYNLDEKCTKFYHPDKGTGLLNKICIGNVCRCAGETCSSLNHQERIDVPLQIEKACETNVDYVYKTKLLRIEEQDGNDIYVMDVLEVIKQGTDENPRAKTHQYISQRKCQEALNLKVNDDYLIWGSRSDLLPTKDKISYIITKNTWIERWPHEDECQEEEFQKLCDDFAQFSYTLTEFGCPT
Protocol for FB: CVF (1 μM), FB (1 μM) and FD (300 nM) were incubated in Assay buffer (pH=7.4, 10 mM MgCl2, 0.05% (m/v), CHAPS) for 3 h at room temperature, so that all FB was cleaved into Baby FD and CVF:Bb complex was generated. SDS-PAGE analysis confirmed that FB was completely hydrolyzed, that is, the concentration of the generated CVF:Bb complex was 300 nM. The CVF:Bb complex was diluted to a concentration of 5 nM using Assay buffer and preincubated with different concentrations of the compounds in assay buffer for 1 h at room temperature. C3 was added to a final concentration of 1 μM to start the enzymatic reaction. After reacting at room temperature for 1 h, protease inhibitor mixture (Roche Complete Inhibitor Tablets) was added to stop the enzyme reaction. Human C3a ELISA kit (Hycult HK354-01) was used to determine the generation of C3a according to the instruction in the kit. The FB activity inhibition rate was plotted against the inhibitor concentration, and graphpad nonlinear regression was used to calculate the IC50 value.

Turning to `COc1cc(C)c2[nH]ccc2c1CN1CCC2(CCCO2)C[C@H]1c1ccc(C(=O)O)cc1` (single isomer, unassigned) [Trifluoroacetate of compound 2-b (diastereomer 2)], the values for the IC50 (on FB; in [1]) were < 500 nM and < 200 nM, respectively. Moreover, the “Inhibition rate of C3a levels in mice” value in the series with C3a levels in mice (Dosage 30 mg/kg) came out at 35.04%; in the series on C3a levels in mice (Dosage 60 mg/kg), 73.12%.
Consider `COc1cc(C)c2[nH]ccc2c1CN1CC[C@H](OCC2CC2)C[C@H]1c1ccc(C(=O)O)cc1` [Compound 4, 4-((2S,4S)-4-(cyclopropylmethoxy)-1-((5-methoxy-7-methyl-1H-indol-4-yl)methyl)piperidin-2-yl)benzoic acid], for which the IC50 at FB is < 500 nM; in series [1] it was < 200 nM.
Take `COc1cc(C)c2[nH]ccc2c1CN1CC[C@@H](C2CC2)C[C@H]1c1ccc(C(=O)O)cc1` [Trifluoroacetate of compound 5 (diastereomer 1), 4-((2S)-4-cyclopropyl-1-((5-methoxy-7-methyl-1H-indol-4-yl)methyl)piperidin-2-yl)benzoic acid]: in series [2], the “Remaining % (T = 60 min) DLM0.5” value is on record as >90%. In addition, in series [3], the bioavailability in monkeys result is recorded as “higher” and the “oral exposure in monkeys” value is on record as “higher”. In addition, in the series on Caco-2 cells, the permeability entry is given as “better”. In addition, in “Caco2 permeability test”, the Papp A→B at 2 h, 2 μM came to 2.17 ×10⁻⁶ cm/s and the Papp B→A at 2 h, 2 μM amounted to 23.9 ×10⁻⁶ cm/s. In addition, the “Remaining % (T = 60 min) MouLM0.5” value in series [4] is recorded as >90%. Moreover, the IC50 in series [1] is < 200 nM. Moreover, in series [5], the bioavailability amounted to 62.6%, the AUC(0-t) was 49300 ng·h/mL and the half-life is 20.9 h. In addition, the “Remaining % (T = 60 min) HLM0.5” value in series [6] was >90%. In series [7], this molecule gave a bioavailability of 81.5% and an AUC(0-t) of 15900 ng·h/mL. The “Remaining % (T = 60 min) RLM0.5” value in series [8] was >90%. Further, the “Remaining % (T = 60 min) CLM0.5” value in series [9] is on record as >90%.

As a reminder, the IC50 is the midpoint of a concentration-inhibition curve. Usually Papp A→B stands for how fast a substance crosses the layer from the apical side. A high value points to ready permeation. Usually Papp B→A stands for the apparent permeability from the basolateral to the apical side of a cell layer. Usually bioavailability stands for dose-corrected exposure relative to a reference, in per cent. For orientation: AUC(0-t) means the area under the concentration-time curve up to a stated or last time point. As usually defined, the half-life is how long it takes for the measured level to halve. Read a high half-life as slow decline.
